Results taken from PubChem BioAssay AID328 (DTP/NCI, 2004).
“And” between values parts separate entries of the source, which are not always exact repeats. Identical values can stand only once. Inconclusive results and toxic doses are left out.

Test system: BDF1 mice, P388 leukemia ip, median survival T/C
Assay: NCI In Vivo Anticancer Drug Screen. Data for tumor model P388 Leukemia (intraperitoneal) in B6D2F1 (BDF1) mice
Settings: endpoint: median survival time, higher = longer survival
Summary of the method: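 Steps: implant the tumour, treat one group with compound and another with vehicle, record survival, then divide treated by control.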

[1] = dose: 100.0 mg/kg/injection, schedule: Q01DX009 (ip), vehicle: saline with Tween-80
[2] = dose: 100.0 mg/kg/injection, schedule: Q04DX003 (ip), vehicle: saline with Tween-80
[3] = dose: 200.0 mg/kg/injection, schedule: Q04DX003 (ip), vehicle: saline with Tween-80
[4] = dose: 400.0 mg/kg/injection, schedule: Q04DX003 (ip), vehicle: saline with Tween-80

## CN(Cc1ccc2nc(N)nc(N)c2c1)c1ccc(C(=O)NC(CCC(=O)O)C(=O)O)cc1 (stereo not drawn)
dose: 0.03 mg/kg/injection, schedule: Q01DX009 (ip), vehicle: saline
  T/C: 172 % of control
dose: 0.05 mg/kg/injection, schedule: Q01DX009 (ip), vehicle: saline
  T/C: 194 % of control
dose: 0.09 mg/kg/injection, schedule: Q01DX009 (ip), vehicle: saline
  T/C: 200 % of control and 218 % of control
dose: 0.15 mg/kg/injection, schedule: Q01DX009 (ip), vehicle: saline
  T/C: 86 % of control and 190 % of control and 209 % of control
dose: 0.22 mg/kg/injection, schedule: Q01DX009 (ip), vehicle: saline
  T/C: 223 % of control
dose: 0.31 mg/kg/injection, schedule: Q01DX009 (ip), vehicle: saline
  T/C: 110 % of control
dose: 1.25 mg/kg/injection, schedule: Q04DX003 (ip), vehicle: saline
  T/C: 218 % of control
dose: 1.65 mg/kg/injection, schedule: Q04DX003 (ip), vehicle: saline
  T/C: 154 % of control
dose: 2.5 mg/kg/injection, schedule: Q04DX003 (ip), vehicle: saline
  T/C: 268 % of control and 159 % of control and 181 % of control
dose: 3.75 mg/kg/injection, schedule: Q04DX003 (ip), vehicle: saline
  T/C: 86 % of control and 222 % of control
dose: 5.0 mg/kg/injection, schedule: Q04DX003 (ip), vehicle: saline
  T/C: 104 % of control
dose: 5.7 micrograms/kg/injection, schedule: Q01DX009 (ip), vehicle: saline
  T/C: 116 % of control
dose: 8.5 micrograms/kg/injection, schedule: Q01DX009 (ip), vehicle: saline
  T/C: 116 % of control
dose: 13.0 micrograms/kg/injection, schedule: Q01DX009 (ip), vehicle: saline
  T/C: 262 % of control
dose: 19.0 micrograms/kg/injection, schedule: Q01DX009 (ip), vehicle: saline
  T/C: 174 % of control

## CCC(C)C1NC(=O)C(NC(=O)c2c3nc4c(C(=O)NC5C(=O)NC(C(C)CC)C(=O)N6CCCC6C(=O)N(C)CC(=O)N(C)C(C(C)C)C(=O)OC5C)cc([N+](=O)[O-])c(C)c4oc-3c(C)c(=O)c2N)C(C)OC(=O)C(C(C)C)N(C)C(=O)CN(C)C(=O)C2CCCN2C1=O (stereo not drawn)
dose: 0.15 mg/kg/injection, schedule: Q04DX003 (ip), vehicle: saline + alcohol
  T/C: 197 % of control
dose: 0.3 mg/kg/injection, schedule: Q04DX003 (ip), vehicle: saline + alcohol
  T/C: 157 % of control and 216 % of control
dose: 0.6 mg/kg/injection, schedule: Q04DX003 (ip), vehicle: saline + alcohol
  T/C: 229 % of control and 221 % of control
dose: 1.2 mg/kg/injection, schedule: Q04DX003 (ip), vehicle: saline + alcohol
  T/C: 270 % of control and 177 % of control
dose: 2.4 mg/kg/injection, schedule: Q04DX003 (ip), vehicle: saline + alcohol
  T/C: 116 % of control
dose: 50.0 micrograms/kg/injection, schedule: Q01DX009 (ip), vehicle: saline + alcohol
  T/C: 173 % of control
dose: 100.0 micrograms/kg/injection, schedule: Q01DX009 (ip), vehicle: saline + alcohol
  T/C: 197 % of control
dose: 200.0 micrograms/kg/injection, schedule: Q01DX009 (ip), vehicle: saline + alcohol
  T/C: 312 % of control
dose: 400.0 micrograms/kg/injection, schedule: Q01DX009 (ip), vehicle: saline + alcohol
  T/C: 118 % of control

## CC(NSc1ccccc1[N+](=O)[O-])C(=O)O (stereo not drawn)
dose: 50.0 mg/kg/injection, schedule: Q01DX009 (ip), vehicle: saline with Tween-80
  T/C: 98 % of control
[1]
  T/C: 113 % of control

## COc1cc(C=Nc2ccc(-n3ccnc3C)cc2)ccc1N(CCCl)CCCl
dose: 5.0 mg/kg/injection, schedule: Q01DX009 (ip), vehicle: Klucel (hydroxypropylcellulose) (HPC)
  T/C: 157 % of control
dose: 7.5 mg/kg/injection, schedule: Q01DX009 (ip), vehicle: Klucel (hydroxypropylcellulose) (HPC)
  T/C: 162 % of control

## COC(=O)C(Br)C(Br)c1ccccc1 (stereo not drawn)
[1]
  T/C: 113 % of control
dose: 400.0 mg/kg/injection, schedule: Q01DX009 (ip), vehicle: saline with Tween-80
  T/C: 118 % of control

## ON=C1CSSC1
dose: 0.78 mg/kg/injection, schedule: Q01DX009 (ip), vehicle: saline with Tween-80
  T/C: 100 % of control
dose: 0.78 mg/kg/injection, schedule: Q04DX003 (ip), vehicle: saline with Tween-80
  T/C: 106 % of control
dose: 1.56 mg/kg/injection, schedule: Q01DX009 (ip), vehicle: saline with Tween-80
  T/C: 102 % of control
dose: 1.56 mg/kg/injection, schedule: Q04DX003 (ip), vehicle: saline with Tween-80
  T/C: 100 % of control
dose: 3.12 mg/kg/injection, schedule: Q01DX009 (ip), vehicle: saline with Tween-80
  T/C: 109 % of control
dose: 3.12 mg/kg/injection, schedule: Q04DX003 (ip), vehicle: saline with Tween-80
  T/C: 99 % of control and 104 % of control
dose: 6.25 mg/kg/injection, schedule: Q01DX009 (ip), vehicle: saline with Tween-80
  T/C: 90 % of control
dose: 6.25 mg/kg/injection, schedule: Q04DX003 (ip), vehicle: saline with Tween-80
  T/C: 100 % of control and 104 % of control
dose: 12.5 mg/kg/injection, schedule: Q01DX009 (ip), vehicle: saline with Tween-80
  T/C: 102 % of control
dose: 12.5 mg/kg/injection, schedule: Q04DX003 (ip), vehicle: saline with Tween-80
  T/C: 99 % of control and 106 % of control

## COc1cc2cc(Oc3ccc4ccc(=O)oc4c3)c(=O)oc2cc1O
dose: 3.12 mg/kg/injection, schedule: Q01DX009 (ip), vehicle: carboxymethylcellulose (CMC)
  T/C: 95 % of control
dose: 6.25 mg/kg/injection, schedule: Q01DX009 (ip), vehicle: carboxymethylcellulose (CMC)
  T/C: 116 % of control
dose: 6.25 mg/kg/injection, schedule: Q01DX009 (ip), vehicle: saline + alcohol
  T/C: 90 % of control
dose: 12.5 mg/kg/injection, schedule: Q01DX009 (ip), vehicle: carboxymethylcellulose (CMC)
  T/C: 104 % of control
dose: 12.5 mg/kg/injection, schedule: Q01DX009 (ip), vehicle: saline + alcohol
  T/C: 95 % of control
dose: 25.0 mg/kg/injection, schedule: Q01DX009 (ip), vehicle: carboxymethylcellulose (CMC)
  T/C: 108 % of control
dose: 25.0 mg/kg/injection, schedule: Q01DX009 (ip), vehicle: saline + alcohol
  T/C: 113 % of control

## O=[N+]([O-])c1ccc(S(=O)(=O)Nc2ccccc2-c2ccccc2)cc1
[2]
  T/C: 96 % of control
[3]
  T/C: 96 % of control
[4]
  T/C: 100 % of control

## CC(=O)NCC(S)c1ccc(Cl)cc1 (stereo not drawn)
[2]
  T/C: 118 % of control
[3]
  T/C: 95 % of control
[4]
  T/C: 90 % of control

## c1ccc(CN2CCn3nccc32)cc1
dose: 6.25 mg/kg/injection, schedule: Q01DX009 (ip), vehicle: other
  T/C: 98 % of control
dose: 12.5 mg/kg/injection, schedule: Q01DX009 (ip), vehicle: other
  T/C: 90 % of control
dose: 12.5 mg/kg/injection, schedule: Q04DX003 (ip), vehicle: other
  T/C: 104 % of control
dose: 25.0 mg/kg/injection, schedule: Q01DX009 (ip), vehicle: other
  T/C: 91 % of control
dose: 25.0 mg/kg/injection, schedule: Q04DX003 (ip), vehicle: other
  T/C: 91 % of control
dose: 50.0 mg/kg/injection, schedule: Q01DX009 (ip), vehicle: other
  T/C: 94 % of control
dose: 50.0 mg/kg/injection, schedule: Q04DX003 (ip), vehicle: other
  T/C: 91 % of control
dose: 100.0 mg/kg/injection, schedule: Q01DX009 (ip), vehicle: other
  T/C: 92 % of control
dose: 100.0 mg/kg/injection, schedule: Q04DX003 (ip), vehicle: other
  T/C: 92 % of control
dose: 200.0 mg/kg/injection, schedule: Q04DX003 (ip), vehicle: other
  T/C: 96 % of control

## CC1CC/C(=C\c2ccccc2)C(=O)/C1=C/c1ccccc1 (stereo not drawn)
dose: 100.0 mg/kg/injection, schedule: Q04DX003 (ip), vehicle: DMSO
  T/C: 112 % of control
dose: 200.0 mg/kg/injection, schedule: Q04DX003 (ip), vehicle: DMSO
  T/C: 87 % of control
dose: 400.0 mg/kg/injection, schedule: Q04DX003 (ip), vehicle: DMSO
  T/C: 87 % of control

## CC1C[N+](C)=C2CCCCC2=C1N (stereo not drawn)
dose: 6.25 mg/kg/injection, schedule: Q01DX009 (ip), vehicle: saline
  T/C: 95 % of control
dose: 12.5 mg/kg/injection, schedule: Q01DX009 (ip), vehicle: saline
  T/C: 100 % of control
dose: 25.0 mg/kg/injection, schedule: Q01DX009 (ip), vehicle: saline
  T/C: 86 % of control

## C=CCCCCCCCCCCCCCC
dose: 145.0 mg/kg/injection, schedule: Q01DX010 (ip), vehicle: saline
  T/C: 104 % of control
dose: 220.0 mg/kg/injection, schedule: Q01DX010 (ip), vehicle: saline
  T/C: 113 % of control
dose: 330.0 mg/kg/injection, schedule: Q01DX010 (ip), vehicle: saline
  T/C: 104 % of control
dose: 500.0 mg/kg/injection, schedule: Q01DX010 (ip), vehicle: saline
  T/C: 118 % of control
